The subject of assay [1] is Escherichia coli ATCC 25922. Put plainly: Internalization of DPV fluorescent conjugates in E. coli (epifluorescence microscopy). Format: cell-based. The note with it: tested as Bodipy conjugate, 1 μM, 30 minutes at 37° C., non-fixed bacteria. The protocol:
(§1) The bacteria in an exponential phase of culture were centrifuged and washed three times with the 10 mM, pH7.4 sodium phosphate buffer (NAPB buffer). The bacterial concentration was adjusted to 1×10^6 cfu/ml (colony-forming units) in the NAPB buffer. 50 μl of the bacterial suspension was deposited on a poly-L-Lysine slide. After 30 minutes incubation at 37° C. in a humid chamber, the bacteria immobilized on the slide were rinsed three times with the NAPB buffer. A 50 μl solution of DPV-Bodipy or DPV-TMR conjugate or control product was, deposited on the bacteria. After incubation for 30 minutes at 37° C. in a humidity chamber and away from light, the slides were rinsed three times with the NAPB buffer. The bacteria may be fixed on the slide by incubating 20 minutes at 37° C., away from light. A drop of 50% PBS/Glycerol was deposited on the slide and covered by a cover glass. After sealing the cover glass on the slide, bacterial fluorescence was observed under a Leica epifluorescence optical microscope (40× or 63× immersion lens). The images were taken with a digital Nikon Coolpix camera with maximum zoom and a 0.63× adapter. A more detailed analysis was performed with a confocal Bio-rad MRC 600 microscope (BIO-RAD Microscience Ltd., Hemel Hempstead, England), provided with an inverse optical microscope and an ×100 immersion lens. The bacteria were visualized by their fluorescence after excitation with a krypton/argon laser. Several sections of 0.1-0.2 μm bacteria were made.
The immobilized bacteria on a poly-L-Lysine slide were incubated with 1 μM of DPV-Bodipy conjugate for 30 minutes at 37° C.
The E. coli bacteria were incubated for 30 minutes at 37° C. with 1 μM of DPV-Bodipy conjugate, as described in paragraph I.8.a. The internalization of fluorescent DPV-Bodipy conjugates in the non-fixed bacteria was visualized under an epifluorescence microscope. […] With the DPV11 and DPV12 peptides (FIGS. 31 and 3J), heterogeneous fluorescence levels in one single bacterial population was obtained. The internalization properties of these peptides were weaker. […] (FIG. 3L).
The internalization of the DPV3 TMR conjugate was evaluated on E. coli bacteria immobilized on a poly-L-Lysine slide or in suspension. The bacteria were incubated with 1 μM of DPV3-TMR conjugate or the Cyst-TMR control for 30 minutes at 37° C., and then either fixed or not on the slide before visualization in an epifluorescence optical microscope.

Assay [2] deals with Pseudomonas aeruginosa ATCC 27853. Put plainly: Internalization of DPV-Bodipy conjugates in P. aeruginosa (epifluorescence microscopy). Format: cell-based. The note with it: tested as Bodipy conjugate, 1 μM, 30 minutes at 37° C. The protocol:
as §1, with “A more detailed analysis was performed with a confocal Bio-rad MRC 600 microscope (BIO-RAD Microscience Ltd., Hemel Hempstead, England), provided with an inverse optical microscope and an ×100 immersion lens.” left out, “Several sections of 0.1-0.2 μm bacteria were made.” left out

Assay [3] relates to Gram-negative bacterium (E. coli, P. aeruginosa). Put plainly: Classification of DPVs by internalization level in the two bacterial strains. It is filed as cell-based. The note with it: for Classification of DPVs: level of internalization: DPV-Bodipy conjugates, accumulation in bacterial cytoplasm, E. coli and P. aeruginosa; for Internalization properties in prokaryotic cells (Gram-negative bacteria): compared with the eukaryotic cell. On the procedure: as §1
Generally, the internalization of DPV is almost identical for the two bacterial strains that were studied.

In assay [4] the test system is eukaryotic cells. The note with it: cited from earlier work; for Localization in the eukaryotic cells: chemically coupled to the peroxydase protein or IgG, WO 01/64738.
Assay [5] concerns P. aeruginosa. Put plainly: Confocal microscopy localization in P. aeruginosa. Format: cell-based, Pseudomonas aeruginosa. The note with it: 3 μM, 37° C., 30 mins., bacteria fixed. On the procedure:
as §1, with “A more detailed analysis was performed with a confocal Bio-rad MRC 600 microscope (BIO-RAD Microscience Ltd., Hemel Hempstead, England), provided with an inverse optical microscope and an ×100 immersion lens.” left out, “Several sections of 0.1-0.2 μm bacteria were made.” left out

The test system of assay [6] is E. coli ATCC 25922. Put plainly: Chessboard method, DPV peptide and erythromycin, E. coli. It is filed as cell-based, Escherichia coli. To be noted: MH medium, 18 hours at 37° C.
Protocol: The dilution ranges were prepared according to a geometric progression of ration 2. 25 μl of the product solutions in MH medium with a concentration four times higher than the desired final concentration or 25 μl of the MH medium (for the lines 0), were distributed in the wells according to the chart below (Table 2), in order to obtain a final volume of 50 μl per well: An isolated colony of the bacterium E. coli ATCC 25922 or P. aeruginosa ATCC 27853 was placed in suspension in 3 to 5 ml of the MH culture medium and incubated at 37° C. for one night, while stirring. From this night culture, a culture in exponential growth phase of the strain was made; the MH medium was seeded at 1/50 é with the night culture and incubated for two hours at 37° C., while stirring. The bacterial concentration was adjusted to 5×10^5-10 s cfu/ml (colony-forming units) in the MH medium. […] The CMI was expressed in μg/ml (mg/1). […] An index below or equal to 0.5 indicates a synergy, an index above 2, an antagonism.

Where no end group is shown, it is not given here.

The values below come from patent publication US8293700B2, “Anti-bacterial composition especially for controlling gram-negative bacteria, comprising a peptide and an advantageously hydrophobic anti-bacterial agent” (Cellectis, priority 2003, dated 2012).

With “Gly Arg Pro Arg Glu Ser Gly Lys Lys Arg Lys Arg Lys Arg Leu Lys Pro (GRPRESGKKRKRKRLKP; C-terminal Cys; listed as Homo sapiens) [DPV6]”, the “Internalization in E. coli (description of FIG. 3)” value (“Internalization in E. coli” for short) in assay [1] was “highly penetrating”. Further, the “Internalization in P. aeruginosa compared with E. coli (FIG. 5)” value in assay [2] is “more internalizing in P. aeruginosa”. Further, in assay [3], the “Classification of DPVs: level of internalization” value (shortened to “Classification of DPVs”) was “medium internalization”. Moreover, the “Localization in the eukaryotic cells” value in assay [4] was “cytoplasmic localization peptides”.
As to “Arg Lys Lys Arg Arg Arg Glu Ser Arg Arg Ala Arg Arg Ser Pro Arg His Leu (RKKRRRESRRARRSPRHL; C-terminal Cys; listed as Homo sapiens) [DPV3.10]”, in assay [1], the “Internalization in E. coli” value is given as “highly penetrating”. Also, in assay [3], the “Classification of DPVs” value is “elevated internalization”. Further, in assay [4], the “Localization in the eukaryotic cells” value was “cytoplasmic localization peptides”.
Regarding “Gly Lys Arg Lys Lys Lys Gly Lys Leu Gly Lys Lys Arg Pro Arg Ser Arg (GKRKKKGKLGKKRPRSR; C-terminal Cys; listed as Homo sapiens) [DPV7b]”, in assay [2], the “Internalization in P. aeruginosa compared with E. coli (FIG. 5)” value is listed as “more internalizing in P. aeruginosa than in E. coli”. Besides, the “Classification of DPVs” value in assay [3] is on record as “medium internalization”. In assay [5], the “Localization of Bodipy conjugate in P. aeruginosa (confocal, FIG. 6)” value is “able to pass through the external membrane”. For the same substance, the “Localization in the eukaryotic cells” value in assay [4] was “cytoplasmic localization peptides”.
With “Gly Ala Tyr Asp Leu Arg Arg Arg Glu Arg Gin Ser Arg Leu Arg Arg Arg Glu Arg Gin Ser Arg (GAYDLRRRERQSRLRRRERQSR; N-terminal Cys; listed as Homo sapiens) [DPV15b]”, the “Classification of DPVs” value in assay [3] is given as “weak internalization”. Moreover, the “Localization in the eukaryotic cells” value in assay [4] was “nuclear localization peptides”.
Take “Gin Gly Lys Ser Lys Arg Glu Lys Lys Asp Arg Val Phe (QGKSKREKKDRVF; C-terminal Cys; listed as Homo sapiens) [DPV12]”: in assay [1], the “Internalization in E. coli” value is listed as “weaker”. In assay [3], the “Internalization properties in prokaryotic cells (Gram-negative bacteria)” value is listed as “same property”. Further, the “Internalization properties in the eukaryotic cell” value in assay [4] was “do not have any internalization properties”.
Regarding “Gly Lys Arg Lys Lys Lys Gly Lys Leu Gly Lys Lys Arg Asp Pro (GKRKKKGKLGKKRDP; C-terminal Cys; listed as Homo sapiens) [DPV7]”, the “Classification of DPVs” value in assay [3] is on record as “medium internalization”. The “Localization in the eukaryotic cells” value in assay [4] was “cytoplasmic localization peptides”.
Take “Asn Pro Gly Val Ser Thr Val Val Leu Gly Ala Tyr Asp Leu Arg Arg Arg Glu Arg Gin Ser Arg (NPGVSTVVLGAYDLRRRERQSR; N-terminal Cys; listed as Homo sapiens) [DPV19]”: the “Internalization in E. coli” value in assay [1] is “did not penetrate into the bacteria”. In addition, in assay [3], the “Internalization properties in prokaryotic cells (Gram-negative bacteria)” value is “same property”. Moreover, the “Internalization properties in the eukaryotic cell” value in assay [4] is “do not have any internalization properties”.
With “Ala Lys Thr Gly Lys Arg Lys Arg Ser Gly (AKTGKRKRSG; C-terminal Cys added; listed as Homo sapiens) [DPV11]”, the “Internalization in E. coli” value in assay [1] is listed as “weaker”. Further, in assay [3], the “Internalization properties in prokaryotic cells (Gram-negative bacteria)” value is reported as “same property”. The “Internalization properties in the eukaryotic cell” value in assay [4] is listed as “do not have any internalization properties”.
“Val Lys Arg Gly Leu Lys Leu Arg His Val Arg Pro Arg Val Thr Arg Met Asp Val (VKRGLKLRHVRPRVTRMDV; N-terminal Cys added; listed as Homo sapiens) [DPV1047]”: the “Classification of DPVs” value in assay [3] was “weak internalization”. The “Localization in the eukaryotic cells” value in assay [4] is listed as “nuclear localization peptides”.
Take RKKRRRESRKKRRRES [DPV3]: the “Internalization in E. coli” value in assay [1] is given as “highly penetrating”. The “Classification of DPVs” value in assay [3] is “elevated internalization”. The “Localization of Bodipy conjugate in P. aeruginosa (confocal, FIG. 6)” value in assay [5] is recorded as “able to pass through the external membrane”. Besides, the “CMI, product alone” value in assay [6] came to 128 µg/mL. For the same substance, in assay [4], the “Localization in the eukaryotic cells” value is reported as “cytoplasmic localization peptides”.
As for “Val Lys Arg Gly Leu Lys Leu Arg Gin Lys Tyr Asn Lys Arg Ala Met Asp Tyr (VKRGLKLRQKYNKRAMDY; N-terminal Cys added; listed as Homo sapiens) [DPV1121]”, the “Classification of DPVs” value in assay [3] was “weak internalization”. Moreover, the “Localization in the eukaryotic cells” value in assay [4] is “nuclear localization peptides”.
On to “Leu Arg Arg Glu Arg Gin Ser Arg Leu Arg Arg Glu Arg Gin Ser Arg (LRRERQSRLRRERQSR; C-terminal Cys; listed as Homo sapiens) [DPV15]”, for which, in assay [1], the “Internalization in E. coli” value was “highly penetrating”. For the same substance, the “Classification of DPVs” value in assay [3] is recorded as “medium internalization”. Further, the “Localization in the eukaryotic cells” value in assay [4] is reported as “nuclear localization peptides”.
